As a reminder, the MIC is the lowest concentration found to suppress growth.

Data set [1] relates to L. monocytogenes HPB 2812 serotype ½a. In words: Inhibitory activity of purified pediocin on growth in broth. Type of data set: cell-based, Listeria monocytogenes. To be noted: for Viable counts: from 9.14. The method, then:
Different amounts of purified bacteriocin (0 to 800 AU/ml) were added to cultures of L. monocytogenes HPB 2812 serotype ½a in early exponential phase (grown for 6 h) and incubated at 37° C. Bacterial growth was monitored by measuring the bacterial population in a 1 ml sample taken every 2 h of incubation. These samples were serially diluted ten-fold in peptone water (0.1% w/v), pour-plated in BHI agar and then incubated at 37° C. for 24 h. Colonies were counted using Darkfield Quebec Colony Counter (American Optical, Scientific instrument division, Keene, Ohio, USA).

For data set [2], the system named is vancomycin-resistant Enterococcus (VRE). In words: VRE intestinal colonization (infection) model. Type of data set: in vivo, CF-1 mice. The method, then: The tubes containing fresh stool samples, collected from individual mice, were weighted, so that the weight of the feces could be deduced. Then, all the feces were diluted in […] of sterile saline, homogenized with a pestle, and serially diluted 10-fold in 0.1% peptone water. Finally, […] of each dilution were inoculated on the following media: MRS agar for detection of total lactic acid bacteria (LAB), Rogosa SL agar for selective detection of Lactobacillus spp., Reinforced Clostridium Medium (RCM) for quantification of total anaerobic and mesophilic bacteria, Baird-Parker agar (BPA) for selective detection of Staphylococcus spp., MacConkey agar for selective enumeration of Enterobacteriaceae, Enterococcosel agar for selective quantification of total Enterococcus spp. and finally Enterococcosel agar+20 μg/ml of vancomycin (Sigma) for detection and enumeration of VRE. A volume of 100 μl of the undiluted sample was also plated. MRS, Rogosa and RCM plates were incubated in anaerobic jars at 37° C. for 72 h while BPA, MacConkey and both Enterococcosel agar plates were incubated under aerobic conditions at 37° C. for 48 h. When negative results were obtained for Enterococcosel agar+20 μg/ml of vancomycin after 48 h of incubation, the plates were allowed to incubate for another 24 h. For statistical purposes, a value in CFU per gram that was based upon the weight of individual specimens was assigned for faeces without microorganisms.
A VRE intestinal colonization (infection) model was adapted from Donskey et al. 25-30 g CF-1 female mice (Charles River) were used. Daily subcutaneous administration of clindamycin (1.4 mg/d) for five days was used to disrupt the intestinal microbiota to induce VRE infection. Three days after the end of clindamycin administration, gastric inoculation of 250 μl of an overnight culture of VRE in BHI broth was used to infect the mice. Approximately 10^8 viable VRE was administered to the mice. Since the beginning of the antibiotic therapy, all groups of LAB-treated mice received once daily […] of 10^10 CFU/ml of Lc. lactis subsp. lactis MM19, P. acidilactici MM33 or P. acidilactici MM33A previously washed twice in sterile PBS. The mice received the LAB until the eighth day after the infection. Bacitracin (Sigma) antibiotic was administrated orally once daily during three days following the mice infection with VRE as 600 units/d diluted in […] of sterile PBS. This treatment was then discontinued and replaced by PBS. Stool samples were collected before the antibiotic administration and 1, 3, 6, 8 and 12 days after the VRE infection. Fecal concentrations of total culturable VRE were analyzed using selective media. This experiment was repeated twice using a total of eight mice per experimental group.

In data set [3] the test system is vancomycin-resistant Enterococcus faecium (VRE) clinical isolate. In words: Agar well-diffusion assay against VRE clinical isolate. To be noted: all concentrations evaluated between 0 to 800 μg/ml; data not shown. It is filed as cell-based. How it is done:
A clinical isolate of vancomycin-resistant Enterococcus faecium (VRE) was provided by the Centre Hospitalier de l'Université de Montréal microbiology laboratory (CHUM; Montreal, QC, Canada). […] The E. faecium strain was maintained in brain-heart infusion (BHI; Difco) for E. faecium containing 10% glycerol (w/v).
An agar well-diffusion assay was performed to verify the antimicrobial capacity of the neutralized cell-free supernatant (CFS) against a VRE clinical isolate. CFS was obtained as described before. A volume of 30 ml of cooled (45° C.) sterile BHI agar, containing 0.75% agar, was inoculated with 10^7 colony-forming units (CFU)/ml of VRE, poured into a […] standard Petri dishes and allowed to solidify for 30 minutes at room temperature. Wells of 6 mm in diameter were cut-out and […] of antimicrobial agent were placed into each well. All plates were then placed at 4° C. for 30 minutes, incubated at 37° C. for 24 h and examined for inhibition zones. Inhibition was scored positive if the width of the clearing zone around the well was 0.5 mm. Antibiotics were also evaluated with this method to ascertain the resistance of the VRE strain. Vancomycin and clindamycin (Sigma-Aldrich, Oakville, ON, Canada) were used in concentrations ranging from 0 to 800 μg/ml. […]
(In agar diffusion tests the substance spreads into inoculated agar from a disc or well.)

The subject of data set [4] is Lactobacillus rhamnosus GG (ATCC 53103). In words: Antibiotic MIC plates (resistance profile). As to conditions: Lacticaseibacillus rhamnosus, ATCC53103. It is filed as cell-based. From the text: (§1) The protocol was adapted from Delgado et al. (2005). Minimum Inhibitory Concentration (MIC) Plate (# GPN3F) and Anaerobe MIC Plate (# AN02B) were used to determine the antibiotic sensitivity and resistance profile of MM19 and MM33 according to the instructions of the manufacturer (Trek Diagnostic Systems; Nova Century, Burlington, ON, Canada).
(§2) Lactococcus lactis subsp. lactis MM19, Pediococcus acidilactici MM33 and Lactobacillus rhamnosus GG (ATCC 53103) from frozen glycerol stock were first inoculated in Lactobacilli MRS and incubated at 37° C. for 18 h. 100 μl of this culture were further incubated under the same conditions. This second culture was then inoculated on a MRS agar plate and incubated at 37° C. for 48 h under anaerobic conditions using GasPak Plus system (BD BBL, Sparks, Md., USA).

Data set [5] deals with Pediococcus acidilactici MM33. The experiment in a line: Antibiotic MIC plates (resistance profile). It is filed as cell-based. To be noted: Pediococcus acidilactici, MM33.
Source text: as §1, §2

Data set [6] has as its system Lactococcus lactis subsp. lactis MM19. The experiment in a line: Antibiotic MIC plates (resistance profile). Type of data set: cell-based. As to conditions: Lactococcus lactis.
Source text: as §1, §2

Positions of bridges follow the written chain, without caps; N, C: chain ends. Non-standard residues stand in square brackets, D forms with d. Residues, ends and D or L forms follow the SMILES beside them. *: point of attachment. Ileψ(thiazoline)Cys = CC[C@H](C)[C@H](N)C1=N[C@H](C(=O)*)CS1; dOrn = NCCC[C@@H](N)C(=O)O

Turning to “pediocin (KYYGNGVTCGKHSCSVDWGKATTCIINNGAMAWATGGHQGNHKC; Pediococcus acidilactici MM33)”, the “Decrease in viable CFU ml^−1” value in data set [1] (at least 200 AU ml^−1 added into the culture medium) is on record as “more than 99.9%”. The Viable counts was 8.7 log CFU ml^−1 in data set [1] (two hours after addition of 100 AU ml^−1), 6.0 log CFU ml^−1 in data set [1] (two hours after addition of 200 AU ml^−1), 4.36 log CFU ml^−1 in data set [1] (two hours after addition of 400 AU ml^−1) and 2.81 log CFU ml^−1 in data set [1] (two hours after addition of 800 AU ml^−1).
Take `CC[C@H](C)[C@H](N)C1=N[C@H](C(=O)N[C@@H](CC(C)C)C(=O)N[C@H](CCC(=O)O)C(=O)N[C@H](C(=O)N[C@H]2CCCCNC(=O)[C@H](CC(N)=O)NC(=O)[C@@H](CC(=O)O)NC(=O)[C@H](Cc3cnc[nH]3)NC(=O)[C@@H](Cc3ccccc3)NC(=O)[C@H]([C@@H](C)CC)NC(=O)[C@@H](CCCN)NC2=O)[C@@H](C)CC)CS1` [Bacitracin] ({Ileψ(thiazoline)Cys}-L[dE]IK[dOrn]I[dF]H[dD]N; lactam 4-C): the “Mice colonized with VRE (%)” value in data set [2] (0 days after VRE infection) came to 0%; in data set [2] (1 day after VRE infection), 100%; in data set [2] (3 days after VRE infection), 0%; in data set [2] (6 days after VRE infection) it was 100%; in data set [2] (8 days after VRE infection), 100%; in data set [2] (12 days after VRE infection), 100%. In addition, the “VRE population (in words)” value in data set [2] (after the treatment was discontinued) is given as “reappeared”. In addition, the “Level of VRE in feces (in words)” value in data set [2] (day 3, 600 units/d orally for three days after infection) is given as “undetectable level”.
For the compound `CN[C@H](CC(C)C)C(=O)N[C@H]1C(=O)N[C@@H](CC(N)=O)C(=O)N[C@H]2C(=O)N[C@H]3C(=O)N[C@H](C(=O)N[C@H](C(=O)O)c4cc(O)cc(O)c4-c4cc3ccc4O)[C@H](O)c3ccc(c(Cl)c3)Oc3cc2cc(c3O[C@@H]2O[C@H](CO)[C@@H](O)[C@H](O)[C@H]2O[C@H]2C[C@](C)(N)[C@H](O)[C@H](C)O2)Oc2ccc(cc2Cl)[C@H]1O` [VAN, Vancomycin], in data set [3], the “Sensitivity of the VRE clinical isolate (in words)” value is on record as “resistant”. Moreover, the figures for the minimal inhibitory concentration (MIC) in data set [4], in data set [5] and in data set [6] were greater than 128 µg/mL, greater than 128 µg/mL and less than 1 µg/mL, respectively.

The record behind these values is patent US20110236359A1 (priority 2007, published 2011).
